# Results taken from patent US20110033883A1, “IMAGING DYES AND USE THEREOF” (priority 2007, published 2011).
# Ru(bpy)2(pic) = [Ru(bpy)2(piCH2)]2+ complex, attached to the peptide through a hexyl spacer; Ahx = NCCCCCC(=O)O
# Legend:
# [1] = pH dependence of resonance Raman peak ratios; type: physicochemical; details: ratio of peaks at 1575 and 1317 cm^-1, 458 nm excitation
# Procedure: (§1) Resonance Raman spectroscopy was performed on a Horiba Jobin Yvon HR800UV confocal microscope using an Argon ion Laser (458 nm or 514 nm) or a Helium-Neon (HeNe) laser (633 nm) as the exciting wavelength. Ten spectral acquisitions were accumulated and each acquisition was two seconds in length. Steady-state emission spectra were recorded on a Cary Eclipse Fluorescence spectrophotometer, and luminescence lifetimes were obtained using a Picoquant Fluotime 100 TCSPC system exciting at 470 nm and detecting at 600 nm using a narrow band pass dielectric filter. Quantum yields were measured using the comparative method described by Williams et al. In quenching studies, the luminophore/quencher concentrations were corrected for dilution.
# To evaluate the pH dependence of the resonance Raman data peak ratios were calculated with Labspec5 software. A baseline was drawn along the base of the peak and the area was calculated. Regions for the peaks were 1700 to 1400 cm^−1. The ratio of the peaks for the different protonation states […] 5 replica measurements were recorded for each pH and averaged.
# As the pH changes, the pic moiety can be protonated or deprotonated, while the bpy moieties should stay mainly unaffected by changes in pH. […]
# [2] = pH titration, ground-state pKa (UV/vis absorption, Henderson-Hasselbalch fit); type: physicochemical
# Procedure: ^1H NMR spectra were recorded on a Bruker Advance series 400 MHz NMR spectrometer. The NMR titration experiments were performed following a previously published protocol (Charbonnier and Penades). Mass spectra were acquired using a positive ion mode on a Bruker LC/MS Esquire. Electronic absorption spectra were measured on a Shimadzu 3500 UV-VIS/NIR spectrophotometer. Cyclic voltammetry was carried out using a CH Instruments CH602 electrochemical workstation. A conventional three-electrode cell was used, employing glassy carbon as working, Ag/AgCl as reference or Ag/AgNO3 in acetonitrile, and Pt wire as counter electrodes. Electrochemistry was conducted in water and acetonitrile respectively with 0.1 M phosphate buffer or tetrabutylammonium tetrafluoroborate (TBABF4) as supporting electrolyte under an N2 atmosphere. pH titrations were performed in the pH range 0.5-12. The pH was adjusted by adding aqueous solutions of NaOH or HClO4.
# (§2) The pH was adjusted with H2SO4 (Sigma-Aldrich) and KOH (Sigma-Aldrich) and measured with a pH meter. UV/vis absorption spectra during the pH titration experiment were corrected for change in volume.
# UV/vis absorption titration curves were fitted with a modified Henderson-Hasselbalch equation which was obtained using Beer-Lambert's law to express the concentration, FIG. 2(b) For fitting the fluorescence titration curve it was assumed that the average lifetime goes linear with the ratio of the two species in equilibrium at the certain pH.
# At a shorter wavelength the ππ* transitions centred at the ligands are found: around 350 nm the ππ* transition at the pic ligand, and around 280 nm at the bipyridine ligands. […] The increasing absorption with increasing pH at 350 nm is plotted in FIG. 13B. Fitting this curve with a modified Henderson-Hasselbalch equation results in a pKa1 of 1.72±0.07 and pKa2 of 8.16±0.03. As expected the pH dependence of the other bands is rather minor.
# [3] = tested on: mouse SP2/0 myeloma cells; test: Resonance Raman mapping of myeloma cells; type: cell-based
# Procedure: as §1
# For the fluorescence and fluorescence lifetime experiments 100 μl aliquots were used and incubated with the 3 μl of the Ru-octopeptide (1.2 mM), resulting in a final dye concentration of 3.5×10^−5 M. If only resonance Raman experiments were performed, the cells were incubated in the medium with dye for 15 minutes prior to the washing step.
# The resonance Raman maps of the stained myeloma cells were analyzed using the modelling option implemented in the LabSpec software. A model with 4 components was creating, grouping together similar spectra in one component (background, where there is no dye/no cell, outer cell (membrane), cytoplasm and nucleus). […]
# [4] = Oxygen quenching of luminescence (Stern-Volmer); type: physicochemical
# Procedure: Different oxygen concentrations were adjusted by streaming various O2—N2-mixtures through the solution until equilibrium was reached. The oxygen concentration was measured with an optical O2 electrode (Visiferm DO120, Hamilton). The fluorescence lifetime of the equilibrated dye solutions was measured in a closed-system flow cell.
# In air saturated PBS solutions the lifetime drops down to 540 ns when the pic ligand is neutral, and even down to 350 ns, when the pic moiety is deprotonated. Stern-Volmer plots are linear up to air saturated solutions and then start levelling of. The Stern-Volmer quenching constants range actually vary very little with pH 2100 M^−1 for pH 10 to around 2900 M^−1 when the pic moiety is in its neutral state. The corresponding bimolecular rate constants vary between around […] when the pic moiety is deprotonated to […] when the pic moiety is in its neutral state, which is essentially the same within experimental error. This means that within the limited range of the cellular environment the O2 concentration within a cell can be assessed independently of pH using this dye.
# [5] = tested on: Sp2/0-Ag 14 myeloma cells; test: Confocal luminescence imaging, incorporation and localization in myeloma cells (DiOC6(3) counterstain); type: cell-based, mouse
# Procedure: (§3) Sp2/0-Ag 14 myeloma cells (ATCC number CRL-1581™) were obtained from the ATCC Cell Biology Collection (United Kingdom). Cells were grown in Dulbecco's modified Eagle's medium (Sigma-Aldrich) supplemented with 10% foetal calf serum (Gibco Invitrogen) and 1% L-glutamine (Gibco Invitrogen) at 37° C. and 5% CO2. Cells were harvested after growing for 2 days. The viability was ensured by testing them in a trypan blue assay. In a usual sample less than 1% of the cells were dead. The growth medium was removed by centrifuging the cells at 2000 rpm for 2 min in an Eppendorff centrifuge, washed twice and resuspended in PBS buffer.
# To identify where the Ru dye [Ru(bpy)2(PIC-arg8)]^2+ is localizing inside the cell, cells were counterstained with two commercial dyes. Sytox green (Invitrogen) which localizes inside the nucleus; and DiOC6(3) (3,3′-dihexyloxacarbocyanine iodide, Invitrogen) which selectively stains mitochondria and at higher concentration other internal membranes, such as the endoplasmatic reticulum, of living cells. Both dyes can be excited with the 458 nm line of an argon ion laser used for excitation of the [Ru(bpy)2(pic-R8)]^n+ dye, however, their fluorescence is in the green (around 500 nm), and therefore could be easily spectrally separated from the fluorescence of the Ru complex. […]
# For the fluorescence and fluorescence lifetime experiments 100 μl aliquots of washed myeloma cells were resuspended in PBS buffer (pH 7.4) and incubated with the 3 μl of the Ru-octopeptide (1.2 mM), resulting in a final dye concentration of 3.5×10^−5 M.
# The luminescence images of myeloma cells were recorded with a Zeiss LSM510 Meta confocal microscope, using a 63× oil immersion objective (NA 1.4). […] The luminescence from the Ru complexes was collected using a longpass filter at 560 nm. When Sytox green and/or DiOC6(3) were localised in the same cell, the luminescence from the Ru-dye was collected behind a 615 nm longpass filter, while the Sytox green and DiOC6(3) fluorescence was collected with a 465-510 nm bandpass filter in another channel, or by using the meta option of the instrument.
# human blood platelets [6] = test: Photobleaching under continuous irradiation at 458 nm of dye-labelled human blood platelets; type: cell-based; details: identical conditions
# From the text: Some of the advantages associated with the invention may include: • The dye conjugates described are long-lived and environmentally sensitive. The sensitivity of the dye conjugates can be tailored, e.g. to oxygen partial pressure, pH, water content etc., by altering the ligands and/or the metal ion of the dye conjugate. • Photobleaching: bleaching experiments, for example the data presented in FIG. 10, are a measure of the photostability of the dye conjugate under the types of continuous irradiation required for imaging. […] For example a ruthenium-polypyridyl complex covalently bound to an octa arginine peptide required approximately 20 minutes continuous irradiation for the dye to bleach to 50% of its initial intensity. […] The dye conjugates described herein provide a much greater acquisition time which is a significant advantage to the microscopist/microbiologist. • The synthetic yields for coupling of the Rupic unit to amine functionalities are high. The dye conjugates are functionalised with a single, accessible group, allowing unequivocal reaction with nucleophilic functions on peptides or proteins. […] The dye conjugates are easily synthetically modified to change colour, lifetime, and environmental sensitivity and are highly resistant to photobleaching.
# FIG. 10 is a graph showing a photobleaching experiment. […]
# [7] = tested on: Sp2/0-Ag 14 myeloma cells; test: Sytox green counterstain for cell viability; type: cell-based, mouse; details: over 2 hours
# Procedure: as §3
# To identify where the Ru dye [Ru(bpy)2(PIC-arg8)]^2+ is localizing inside the cell, cells were counterstained with two commercial dyes. […] Both dyes can be excited with the 458 nm line of an argon ion laser used for excitation of the [Ru(bpy)2(pic-R8)]^n+ dye, however, their fluorescence is in the green (around 500 nm), and therefore could be easily spectrally separated from the fluorescence of the Ru complex. […]
# The luminescence images of myeloma cells were recorded with a Zeiss LSM510 Meta confocal microscope, using a 63× oil immersion objective (NA 1.4). […] The luminescence from the Ru complexes was collected using a longpass filter at 560 nm. […]
# human blood platelets [8] = test: Fluorescence microscopy of human blood platelets incubated with dye conjugates; type: cell-based
# Procedure: Human Blood Platelets were supplied by Niamh Moran and Dermot Kenny and prepared as described Moran et al.
# Fluorescence microscopy was performed on human blood platelets incubated in the presence of Ru-Ahx-R5 and Ru-Ahx-R8. […] The process is largely irreversible, removing and washing cells, and resuspending in buffer results in less than 20% loss of emission intensity from the cell. The fluorescence microscopy pictures show intense, long-lived luminescence originating from the platelet; the wavelength of which (around 620 nm) can be assigned to the Ruthenium centres.
# [9] = Luminescence intensity as a function of pH, excited state pKa; type: physicochemical; details: excitation at isosbestic point, luminescence intensity vs pH
# Procedure: as §1, §2
# The luminescence wavelength and its intensity are pH dependent. While the emission maximum at pH 7 is at 608 nm, it shifts to higher wavelength with increasing and decreasing pH (λmax (pH 1.3)=623 nm; λmax (pH 11)=616 nm). When the pic ligand is in its neutral state, the luminescence is very bright (Φ=0.06), about 30% more intense than the one of [Ru(bpy)3]^2+. […]
# [10] = tested on: bovine aortic epithelial (BAE) cells; test: Confocal luminescence imaging of bovine aortic epithelial (BAE) cells; type: cell-based; details: BAE cells in PBS buffer, 22° C., excitation 458 nm
# Procedure: Bovine aortic endothelium cells were supplied by Dr PM Cummins and cultured as described in Colgon et al.
# Here it has been used to image emission spectrum (left) and a confocal image at a excitation wavelength of 458 nm (right) of bovine aortic epithelial (BAE) cells. The dyes were incubated at 22° C. with BAE cells in PBS buffer.
# [11] = absorption at 350 nm vs pH, modified Henderson-Hasselbalch fit
substance,measurement,setting,value
[Ru(bpy)2(PicH2)](PF6)2 [[Ru-LH]^2+],pKa from ratio of resonance Raman peaks,[1],8.5±0.2
same,pKa of ionisable site at the imidazole (higher),[2],8.5
same,pKa of ionisable site at the imidazole (lower),[2],1.6
[Ru(dppz)2(PicH2)]ClO4 [[Ru(dppz)2PICH2]^2+],entry into the cell (resonance Raman imaging),"[3]; mouse SP2/0 myeloma cells, pH 7.4 PBS, cells washed",only interacted with the membrane but did not cross it
"[Ru(bpy)2(PicH-R8)]^n+: ruthenium centre with two bipyridine ligands and one picH ligand; octaarginine coupled to pic carboxy end via Ahx spacer, amide linkage ({(Ru(bpy)2(picH))-Ahx}-RRRRRRRR-NH2; also: Ru(bpy)2 picH ruthenium complex attached via Ahx spacer)",bimolecular rate constant of oxygen quenching,[4]; pic moiety deprotonated,around 3.6×10^−9 M^−1 s^−1
same,bimolecular rate constant of oxygen quenching,[4]; pic moiety in its neutral state,3e-09 M⁻¹ s⁻¹
same,incubation time after which dye localises in the nucleus,[5],> 40 min
same,time until penetration into the cells is complete,[5]; 3.5×10^−5 M dye,15 to 20 min
same,preference for mitochondria (DiOC6(3) counterstain),[5]; 20 mins incubation,no special preferences for mitochondria
same,"distribution of the dye inside the cell (Raman map, band at 1487 cm^−1)",[3]; myeloma cell incubated for 15 min,"distributed throughout the cytoplasm, with less dye in the nucleus"
same,continuous irradiation time for the dye to bleach to 50% of its initial intensity,human blood platelets [6],approximately 20 minutes
same,cell viability (Sytox green exclusion),[7],did not kill the cells
same,pKa1,[2]; [11],1.72±0.07
same,pKa2,[2]; [11],8.16±0.03
same,"loss of emission intensity from the cell after removing, washing and resuspending in buffer",human blood platelets [8],less than 20%
same,transport across the platelet membrane,human blood platelets [8]; fluorescence microscopy,transported through the cells membrane to accumulate intracellularly
same,excited state pKa2*,[9],8.1±0.2
"[Ru(bpy)2(pic-KVG)]^n+: [Ru(bpy)2(piCH2)]^2+ attached through a hexyl spacer to KVGFFKR-NH2 (SEQ ID No. 20) ({Ru(bpy)2(pic)-Ahx}-KVGFFKR-NH2; also: ruthenium complex, charge n+)",localisation of the dye in the cells (luminescence image),[10],concentrates in the membrane
